Like-named read-outs stand apart in the source and are kept apart here.
Assays:
DDX3 Helicase = DDX3 Helicase (Homo sapiens, UniProt O00571); conditions: read-out: ID50 (μM) against DDX3 Helicase; n.a. = compound not active
[1] = tested on: human liver microsome (HLM); experiment: Microsomal Stability Assay; conditions: human liver microsomes, 37 °C, 60 min, compound 50 μM; percentage of not metabolized compound
NS3 (HCV) = NS3 (HCV) (Hepacivirus hominis (Hepatitis C virus), UniProt P26663); experiment: Selectivity of 20a: NS3 (HCV); type: biochemical
[2] = tested on: HIV-1 strains carrying resistance mutations; experiment: microbe, parasite or virus in culture; type: cell-based; conditions: for IC50: Human immunodeficiency virus 1, TZM-bl
JEV strain (NJ2008) = experiment: JEV infectious cell culture system, plaque formation assay in BHK-21 cells; conditions: Japanese encephalitis virus, BHK-21, read-out: JEV EC50
Water Solubility Assay = type: physicochemical; conditions: thermodynamic from solid
NS3 (DENV) = NS3 (DENV) (Orthoflavivirus denguei (Dengue virus), UniProt P29990); experiment: Selectivity of 20a: NS3 (DENV); type: biochemical
[3] = Cytotoxicity in PBMC, CellTiter 96 MTS viability assay; type: cell-based; conditions: human, human primary PBMCs
[4] = Cytotoxicity, MTT method in LUNET cells; type: cell-based; conditions: human; MMT method in LUNET cells; read-out: CC50 (μM) non-infected cells
Description: Toxicity (CC50) was analysed in the Lunet/HuH7 cells by the addition of 10 μL of MTT (3-(4,5-dimethylthiazol-2-yl)-2,5-diphenyltetrazolium bromide) per well. After 4 h of incubation at 37° C. in a humidified atmosphere with 5% CO2, the amount of formazan produced was quantified spectrophotometrically at 550/620 nm (C. Pannecouque et al, Nature protocol 2008; 3 (3): 427-434). […] These assays were done in duplicate.

[5] = Cytotoxicity, MTT method in HuH7.5 cells; type: cell-based; conditions: human, non-infected, read-out: HCV CC50
Description: After 4 h of incubation at 37° C. in a humidified atmosphere with 5% CO2, the amount of formazan produced was quantified spectrophotometrically at 550/620 nm (C. Pannecouque et al, Nature protocol 2008; 3 (3): 427-434). […] These assays were done in duplicate.

[6] = Cytotoxicity in the JEV cell culture system; conditions: hamster
ATPase DDX3 = biological target: T1, ATPase DDX3 (Homo sapiens, UniProt O00571); experiment: Selectivity of 20a: ATPase DDX3; type: biochemical; conditions: >200 = less than 20% of inhibition at 200 μM, the highest concentration tested
T1 construct: made in house; host or cells: E. coli

[7] = Cytotoxicity in Huh7 cells, nuclei counts; conditions: human
[8] = Parallel Artificial Membrane Permeability Assay (PAMPA); type: in vitro ADME

Sequence of DDX3 Helicase (O00571 whole entry): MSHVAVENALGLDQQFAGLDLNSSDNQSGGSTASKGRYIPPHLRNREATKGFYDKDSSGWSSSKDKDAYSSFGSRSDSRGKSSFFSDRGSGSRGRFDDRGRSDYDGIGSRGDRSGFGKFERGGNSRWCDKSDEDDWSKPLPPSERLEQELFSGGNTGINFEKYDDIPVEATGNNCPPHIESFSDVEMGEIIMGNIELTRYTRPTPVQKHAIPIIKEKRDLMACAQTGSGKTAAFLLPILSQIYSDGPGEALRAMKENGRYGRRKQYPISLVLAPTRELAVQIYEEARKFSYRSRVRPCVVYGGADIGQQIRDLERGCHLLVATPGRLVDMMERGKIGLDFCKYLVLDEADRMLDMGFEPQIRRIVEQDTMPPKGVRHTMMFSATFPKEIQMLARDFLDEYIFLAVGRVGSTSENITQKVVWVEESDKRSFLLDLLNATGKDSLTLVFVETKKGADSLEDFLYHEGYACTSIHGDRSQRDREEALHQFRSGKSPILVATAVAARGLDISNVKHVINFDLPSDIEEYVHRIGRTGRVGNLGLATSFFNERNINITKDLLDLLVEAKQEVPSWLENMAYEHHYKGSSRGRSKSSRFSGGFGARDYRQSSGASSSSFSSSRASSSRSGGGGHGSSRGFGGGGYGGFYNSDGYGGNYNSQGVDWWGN
T1 sequence (O00571 whole entry): as above
Sequence of NS3 (HCV) (P26663 1027-1657): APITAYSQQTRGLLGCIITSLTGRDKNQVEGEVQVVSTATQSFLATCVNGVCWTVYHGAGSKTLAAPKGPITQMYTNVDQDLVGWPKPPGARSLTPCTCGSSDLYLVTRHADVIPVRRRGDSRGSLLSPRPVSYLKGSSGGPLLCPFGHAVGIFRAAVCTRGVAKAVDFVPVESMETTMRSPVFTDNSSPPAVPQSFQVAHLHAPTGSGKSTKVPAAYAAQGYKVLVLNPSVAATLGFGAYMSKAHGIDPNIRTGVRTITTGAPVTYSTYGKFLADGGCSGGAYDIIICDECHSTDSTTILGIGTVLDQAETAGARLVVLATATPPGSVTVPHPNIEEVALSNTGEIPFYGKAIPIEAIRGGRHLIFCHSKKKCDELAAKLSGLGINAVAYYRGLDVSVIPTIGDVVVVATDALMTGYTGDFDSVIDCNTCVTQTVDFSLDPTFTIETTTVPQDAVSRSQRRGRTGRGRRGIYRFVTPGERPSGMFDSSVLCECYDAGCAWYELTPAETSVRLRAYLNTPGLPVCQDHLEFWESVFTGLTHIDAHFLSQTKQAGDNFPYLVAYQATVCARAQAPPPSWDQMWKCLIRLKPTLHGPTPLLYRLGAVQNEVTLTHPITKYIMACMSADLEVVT
Sequence of NS3 (DENV) (P29990 1476-2093): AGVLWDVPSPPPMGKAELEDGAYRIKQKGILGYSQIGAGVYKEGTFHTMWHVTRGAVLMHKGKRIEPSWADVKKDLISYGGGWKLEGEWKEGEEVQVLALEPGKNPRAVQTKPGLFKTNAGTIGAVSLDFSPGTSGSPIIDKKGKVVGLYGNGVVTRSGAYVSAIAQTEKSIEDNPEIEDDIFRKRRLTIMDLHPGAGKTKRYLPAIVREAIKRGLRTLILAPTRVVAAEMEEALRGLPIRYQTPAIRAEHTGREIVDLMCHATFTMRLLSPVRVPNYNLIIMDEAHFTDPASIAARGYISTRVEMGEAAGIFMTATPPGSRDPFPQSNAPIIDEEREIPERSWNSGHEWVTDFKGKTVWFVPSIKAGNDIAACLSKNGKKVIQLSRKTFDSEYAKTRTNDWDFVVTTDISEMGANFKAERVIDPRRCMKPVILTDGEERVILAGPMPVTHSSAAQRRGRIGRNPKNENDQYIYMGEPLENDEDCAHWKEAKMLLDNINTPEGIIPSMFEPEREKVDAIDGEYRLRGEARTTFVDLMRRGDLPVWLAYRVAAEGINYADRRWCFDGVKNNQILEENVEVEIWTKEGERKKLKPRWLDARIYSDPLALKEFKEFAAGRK

CCCCc1cn(-c2ccc(NC(=O)Nc3ccccc3C)cc2)nn1 [Compound 20a, 1-(4-(4-butyl-1H-1,2,3-triazol-1-yl)phenyl)-3-o-tolylurea]
IC50 (DDX3 Helicase): 0.3 µM
Metabolic stability (Sability %) [1]: 99%
IC50 (NS3 (HCV)): 16.8 µM
IC50 ([2]; read-out: IC50 [95% CI] (μM), HIV-1 strain 7404): 0.22 µM
IC50 ([2]; read-out: IC50 [95% CI] (μM), HIV-1 strain 7406): 0.33 µM
IC50 ([2]; read-out: IC50 [95% CI] (μM), HIV-1 strain 11808): 0.23 µM
IC50 ([2]; read-out: IC50 [95% CI] (μM), HIV-1 strain 11845): 0.37 µM
IC50 ([2]; read-out: IC50 [95% CI] (μM), HIV-1 strain 12227): 0.94 µM
IC50 ([2]; read-out: IC50 [95% CI] (μM), HIV-1 strain 12235): 0.36 µM
Fold change, strain 7404 ([2]; resistant strain IC50 to wild type strain IC50 ratio, 7404 NRTIs): 0.2
Fold change, strain 7406 ([2]; resistant strain IC50 to wild type strain IC50 ratio, 7406 NRTIs): 0.3
Fold change, strain 11808 ([2]; resistant strain IC50 to wild type strain IC50 ratio, 11808 PIs): 0.2
Fold change, strain 11845 ([2]; resistant strain IC50 to wild type strain IC50 ratio, 11845 INIs): 0.3
Fold change, strain 12227 ([2]; resistant strain IC50 to wild type strain IC50 ratio, 12227 NNRTIs): 0.8
Fold change, strain 12235 ([2]; resistant strain IC50 to wild type strain IC50 ratio, 12235 NNRTIs): 0.3
activity against resistant HIV viruses, in words ([2]; viruses carrying resistance mutations): retained full activity
EC50 (JEV strain (NJ2008)): 20 µM
solubility (Water Solubility Assay; experimental aqueous solubility, read-out: LogS (converted)): 0.0891 µM
solubility (Water Solubility Assay; room temperature, 24-36 h, read-out: Aq. Solub.): 0.135 µg/mL
IC50 (NS3 (DENV)): > 200 µM
CC50 at 24 h ([3]; 24 h): > 1000 µM
CC50 at 48 h ([3]; 48 h): > 1000 µM
CC50 at 72 h ([3]; 72 h): > 1000 µM
CC50 [4]: 49.8 µM
CC50 [5]: 10.1 µM
CC50 [6]: > 50 µM
IC50 (ATPase DDX3): > 200 µM
CC50 at 48 h ([7]; DENV CC50, Huh7 cells, DENV experiment): > 787 µM
CC50 at 48 h ([7]; WNV CC50, Huh7 cells, WNV experiment): > 500 µM
Papp at 5 h, 0.5 mM ([8]; PAMPA, phosphatidylcholine in dodecane, pH 7.4, 5 h, room temperature, read-out: PAMPA Papp *10^−6 (cm/s) GI): 2.86 ×10⁻⁶ cm/s
PAMPA membrane retention (RM %) ([8]; value in brackets in the PAMPA cell): 19.1%
